Laboratory results published in US20120208809A1, “9H-PYRROLO[2,3-B: 5,4-C'] DIPYRIDINE AZACARBOLINE DERIVATIVES, PREPARATION THEREOF, AND THERAPEUTIC USE THEREOF” (SANOFI, priority 2009, published 2012).

Tests used:
Pim-1 = biological target: T1, Pim-1 (Homo sapiens, UniProt P11309); test: TR-FRET assay of Pim kinase activity (phosphorylation of Bad Ser112), Pim-1; assay type: biochemical; settings: ATP 40 μM, read-out: IC50 Pim1
T1 construct: full-length human recombinant His6-labelled Pim-1, Pim-2 or Pim-3 protein; His6; made in house
Procedure, shortened: (§1)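 Full-length His6-tagged human Pim-1, -2 or -3 phosphorylate full-length His6-Bad at 40 μM ATP; phospho-Ser112 detected by TR-FRET (Eu anti-phosphoBad, APC anti-His6), 665/615 nm ratio. Compounds run at 10 concentrations in duplicate, typically top 30 μM; IC50 from 4-parameter logistic fit.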

Pim-2 = biological target: T2, Pim-2 (Homo sapiens, UniProt Q9P1W9); test: TR-FRET assay of Pim kinase activity (phosphorylation of Bad Ser112), Pim-2; assay type: biochemical; settings: ATP 40 μM, read-out: IC50 Pim2
T2 construct: full-length human recombinant His6-labelled Pim-1, Pim-2 or Pim-3 protein; His6; made in house
Procedure, shortened: as §1

Pim-3 = biological target: T3, Pim-3 (Homo sapiens, UniProt Q86V86); test: TR-FRET assay of Pim kinase activity (phosphorylation of Bad Ser112), Pim-3; assay type: biochemical; settings: ATP 40 μM, read-out: IC50 Pim3
T3 construct: full-length human recombinant His6-labelled Pim-1, Pim-2 or Pim-3 protein; His6; made in house
Procedure, shortened: as §1

CDK1 = CDK1 (Homo sapiens, UniProt P06493); test: Biochemical results, IC50 CDK1
PLK1 = PLK1 (Homo sapiens, UniProt P53350); test: Biochemical results, IC50 PLK1
EOL-1 = test: Cell viability assay (CellTiter-Blue), EOL-1; assay type: cell-based; settings: Homo sapiens, EOL1, read-out: EC50 EOL-1 μM (eosinophilic leukaemia), EOL-1 cells, read-out: EC50 EOL-1 μM (lymphoma);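 also: EOL-1 is an acute myeloid eosinophilic leukaemia line not a lymphoma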
Excerpt: (§2) The representative compounds of the invention are also screened as regards their effects on cell proliferation and viability, using a variety of tumoral cell lines of human source, representative of different pathological indications. These cell lines include:
Models of Haematological Cancers: • TF-1 (acute myelogenic leukaemia; AML M6 at the time of diagnosis); • K G-1 (AML; erythroleukaemia evolving into AML); • KG-1a (AML; subclone derived from immature KG-1); • EOL-1 (AML: eosinophilic leukaemia); • PL-21 (AML; M3); • ML-2 (AML; T-NHL evolving into T-ALL evolving into AML M4); • HL-60 (AML, M3); • Kasumi-1 (AML); • GDM-1 (AML); • K-562 (CML—chronic myelogenic leukaemia; blastic crisis); • JURL-MK1 (CML; blastic crisis); • DND-41 (T-ALL—T-cell acute lymphoblastic leukaemia); • Jurkat (T-ALL); NALM-6 (B-ALL B-cell ALL); • CEM (ALL; lymphosarcoma evolving into ALL); • Jeko-1 (B-NHL—B-cell non-Hodgkin lymphoma; lymphoma with coat cells derived from a large-cell variant in leukaemic transformation); • WSU-DLCL2 (B-NHL; diffuse lymphoma with large B cells); • RL (B-NHL; undifferentiated diffuse); • OCl-Ly10 (B-NHL); • DoHH-2 (B-NHL); • RPMI-8226 (MM—multiple myelomas); • JVM-2 (B-CLL—B-cell chronic lymphocytic leukaemia); and • JVM-3 (B-CLL).
(§3) In order to measure the viability, the tumour cells are incubated in 96-well or 384-well format for 48, 72 or 96 hours, preferably 72 hours, with a compound of the invention at dilutions of a factor 3, with, in general, nine doses in total, the highest dose being equal to 10 μM or 30 μM. The cell viability is evaluated by adding CellTiter-Blue® (Promega, Madison, Wis., United States) for 4 hours and endpoint readings are taken using a SpectraMax Genmini EM plate reader (Molecular Devices, Sunnyvale, Calif., United States). The CellTiter-Blue® cell viability assay measures the ability of the cells in culture to reduce resazurin to resorufin, the intensity of the fluorescence signal being directly proportional to the number of live cells. The EC50 represents the concentration of compound that leads to a 50% reduction of the viability/proliferative expansion of the cells.

MV4-11 = test: Cell viability assay (CellTiter-Blue), MV4-11; assay type: cell-based; settings: Homo sapiens, read-out: EC50 MV4-11 μM (acute myeloid leukemia), MV4-11 cells, read-out: EC50 MV4-11 μM (myeloma)
Procedure: as §2, §3

MOLM-13 = test: Cell viability assay (CellTiter-Blue), MOLM-13; assay type: cell-based; settings: Homo sapiens, read-out: EC50 MOLM-13 μM, MOLM-13 cells, read-out: EC50 MOLM-13 μM (myeloma)
Procedure: as §2, §3

phosphoBAD (JEKO) = test: Level of phosphorylation of Bad by ELISA, JEKO cell line; assay type: cell-based; settings: Homo sapiens, JEKO cells, 3 hours at 37° C.
Procedure: (§4) The activity of the molecules is evaluated on the JEKO or DND-41 cell line by measuring the level of phosphorylation of Bad and the total Bad content, via the ELISA technique.
(§5) The JEKO or DND-41 cells are resuspended at a concentration of 500 000 cells per ml. The cells are then diluted in RPMI-1640 medium containing 20% foetal calf serum. 225 μl of cells are placed in a plate. Serial dilutions of the molecules are then performed (8 points, three-fold dilution, range started at 10 mM). Each dilution point is then diluted to 1/100 in medium. Next, 25 μl of each of the concentrations are added to the cells and then incubated for 3 hours at 37° C.
(§6) 100 μl of the cells are transferred into a plate treated with poly-D-Lysine. The plate is then incubated for 5-10 minutes at 37° C. and then centrifuged for 5 minutes at 1500 rpm. A volume of 100 μl of 8% fixing solution (solution of formaldehyde in PBS buffer) is added to each of the wells. After covering with a self-adhesive film and a lid, the plate is incubated for 20 minutes at room temperature and then stored at 4° C. overnight.
(§7) Next, the liquid is removed and two successive washes are performed with washing buffer. 100 μl of quenching buffer are added, followed by incubating for 15 minutes at room temperature. After washing, 100 μl of […] at room temperature. After washing, 50 μl of primary antibody diluted to 1/250 for pBAD (Cell Signaling Cat#5284) and to 1/500 for Bad (MBL Cat#591) are added to each of the plates. Each plate is incubated for 2 hours at room temperature. After two washes, 50 μl of secondary antibody (diluted to 1/16) are added to the pBAD plate (tebu-bio ref; FE-021) and 50 μl of the HRP-conjugated IgG secondary antibody (Santa Cruz Cat #SC-2004; diluted to 1/1000) are added to the Bad plate. Incubation for 1 hour at room temperature is performed. Four washes with the washing solution are performed, followed by three washes with PBS. Finally, 100 μl of the developing solution are added, followed by incubation for 10 minutes. Finally, 100 μl of the quenching solution are added, before reading at 450 nm.

phosphoBAD (DND-41) = test: Level of phosphorylation of Bad by ELISA, DND-41 cell line; assay type: cell-based; settings: Homo sapiens, DND41, DND-41 cells, 3 hours at 37° C.
Procedure: as §4, §5, §6, §7

T1 sequence (P11309 whole entry): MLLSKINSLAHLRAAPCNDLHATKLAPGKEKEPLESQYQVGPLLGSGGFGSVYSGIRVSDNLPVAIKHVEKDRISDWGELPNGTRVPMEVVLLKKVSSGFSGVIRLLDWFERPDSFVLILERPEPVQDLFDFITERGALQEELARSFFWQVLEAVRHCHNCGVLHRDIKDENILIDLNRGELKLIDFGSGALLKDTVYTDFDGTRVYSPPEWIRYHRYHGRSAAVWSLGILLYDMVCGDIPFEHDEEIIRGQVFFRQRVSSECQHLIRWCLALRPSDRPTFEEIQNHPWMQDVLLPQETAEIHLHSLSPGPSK
Chain of PLK1 (P53350 whole entry, species assumed): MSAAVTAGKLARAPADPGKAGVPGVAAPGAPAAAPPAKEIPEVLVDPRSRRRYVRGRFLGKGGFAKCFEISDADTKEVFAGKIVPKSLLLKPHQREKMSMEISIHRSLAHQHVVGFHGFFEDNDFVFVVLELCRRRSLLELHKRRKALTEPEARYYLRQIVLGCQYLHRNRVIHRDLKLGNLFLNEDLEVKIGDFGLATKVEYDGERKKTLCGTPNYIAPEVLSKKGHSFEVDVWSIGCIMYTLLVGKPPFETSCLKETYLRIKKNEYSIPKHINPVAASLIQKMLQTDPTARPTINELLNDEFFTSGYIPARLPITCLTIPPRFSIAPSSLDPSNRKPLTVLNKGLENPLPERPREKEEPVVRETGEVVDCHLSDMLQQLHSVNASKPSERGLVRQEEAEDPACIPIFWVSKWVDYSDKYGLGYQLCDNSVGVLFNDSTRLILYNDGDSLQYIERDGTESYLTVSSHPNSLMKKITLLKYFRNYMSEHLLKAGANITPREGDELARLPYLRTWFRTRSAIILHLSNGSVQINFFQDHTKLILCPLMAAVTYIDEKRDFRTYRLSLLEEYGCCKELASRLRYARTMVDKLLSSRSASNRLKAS
T2 sequence (Q9P1W9 whole entry): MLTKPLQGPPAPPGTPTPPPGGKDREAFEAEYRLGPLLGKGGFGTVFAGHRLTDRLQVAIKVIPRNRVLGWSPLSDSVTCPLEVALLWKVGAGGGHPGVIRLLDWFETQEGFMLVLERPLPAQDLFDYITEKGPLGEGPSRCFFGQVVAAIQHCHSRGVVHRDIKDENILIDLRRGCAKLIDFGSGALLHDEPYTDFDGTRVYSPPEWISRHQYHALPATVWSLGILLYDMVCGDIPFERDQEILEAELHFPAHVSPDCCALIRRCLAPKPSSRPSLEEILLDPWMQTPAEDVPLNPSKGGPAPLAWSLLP
Chain of CDK1 (P06493 whole entry, species assumed): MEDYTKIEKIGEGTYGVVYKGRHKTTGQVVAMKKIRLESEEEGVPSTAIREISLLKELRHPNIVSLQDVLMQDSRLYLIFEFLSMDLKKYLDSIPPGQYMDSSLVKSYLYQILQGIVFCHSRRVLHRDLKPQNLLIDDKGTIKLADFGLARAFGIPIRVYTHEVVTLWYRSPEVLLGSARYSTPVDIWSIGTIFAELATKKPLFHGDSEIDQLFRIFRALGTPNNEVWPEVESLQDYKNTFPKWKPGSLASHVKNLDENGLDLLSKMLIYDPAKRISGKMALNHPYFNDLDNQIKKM
Chain of CDK1 (P14635 whole entry partner, species assumed): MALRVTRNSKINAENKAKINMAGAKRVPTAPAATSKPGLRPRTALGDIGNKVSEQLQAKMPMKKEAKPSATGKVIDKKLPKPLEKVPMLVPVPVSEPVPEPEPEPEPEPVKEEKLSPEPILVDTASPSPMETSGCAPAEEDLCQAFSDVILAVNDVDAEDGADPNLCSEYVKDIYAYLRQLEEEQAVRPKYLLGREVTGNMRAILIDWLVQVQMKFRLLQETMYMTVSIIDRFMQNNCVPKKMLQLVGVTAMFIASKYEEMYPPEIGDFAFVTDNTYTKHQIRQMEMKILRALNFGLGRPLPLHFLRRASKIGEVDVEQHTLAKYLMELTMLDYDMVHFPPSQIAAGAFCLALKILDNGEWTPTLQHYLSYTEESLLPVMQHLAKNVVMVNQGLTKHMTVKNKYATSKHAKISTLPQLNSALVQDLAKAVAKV

IC50 (Pim-1) [nM] | IC50 (Pim-2) [nM] | IC50 (Pim-3) [nM] | IC50 (CDK1) [nM] | IC50 (PLK1) [nM] | EC50 (MV4-11) [nM] | EC50 (MOLM-13) [nM] | IC50 (phosphoBAD (JEKO)) [nM] | IC50 (phosphoBAD (DND-41)) [nM] | SMILES | EC50 (EOL-1) [nM]
< 100 | < 100 | < 100 | 100 to 1000 | 100 to 1000 | < 100 | 100 to 1000 | 100 to 1000 | 1000 to 5000 | CN(C)CCNC(=O)c1ccc(-c2c(F)cnc3[nH]c4cnc(-c5cccnc5)cc4c23)cc1 [Example 9, N-[2-(dimethylamino)ethyl]-4-[3-fluoro-6-(pyridin-3-yl)-9H-pyrrolo-[2,3-b:5,4-c′]dipyridin-4-yl]benzamide] | < 100
< 100 | 1000 to 5000 | < 100 | 1000 to 5000 | 1000 to 5000 | 100 to 1000 | – | 100 to 1000 | 1000 to 5000 | CN1CCN(CCNC(=O)c2ccc(-c3c(F)cnc4[nH]c5cnc(-c6cccnc6)cc5c34)cc2)CC1 [Example 24, 4-[3-fluoro-6-(pyridin-3-yl)-9H-pyrrolo[2,3-b:5,4-c′]dipyridin-4-yl]-N-[2-(4-methylpiperazin-1-yl)ethyl]benzamide] | 100 to 1000
< 100 | 100 to 1000 | < 100 | 1000 to 5000 | 1000 to 5000 | 100 to 1000 | – | 1000 to 5000 | – | CN1CCC(NC(=O)c2ccc(-c3c(F)cnc4[nH]c5cnc(-c6cccnc6)cc5c34)cc2)CC1 [Example 22, 4-[3-fluoro-6-(pyridin-3-yl)-9H-pyrrolo[2,3-b:5,4-c′]dipyridin-4-yl]-N-(1-methylpiperidin-4-yl)benzamide] | 100 to 1000
< 100 | 100 to 1000 | < 100 | 1000 to 5000 | 100 to 1000 | 100 to 1000 | 100 to 1000 | – | – | CN1CCN(NC(=O)c2ccc(-c3c(F)cnc4[nH]c5cnc(-c6cccnc6)cc5c34)cc2)CC1 [Example 7, 4-[3-fluoro-6-(pyridin-3-yl)-9H-pyrrolo[2,3-b:5,4-c′]dipyridin-4-yl]-N-(4-methylpiperazin-1-yl)benzamide] | < 100
< 100 | 1000 to 5000 | 100 to 1000 | – | – | – | – | 100 to 1000 | – | O=C(NC1CC1)c1ccc(-c2c(F)cnc3[nH]c4cnc(-c5cccnc5)cc4c23)cc1 [Example 11, N-cyclopropyl-4-[3-fluoro-6-(pyridin-3-yl)-9H-pyrrolo[2,3-b:5,4-c′]dipyridin-4-yl]benzamide] | –
< 100 | < 100 | < 100 | 100 to 1000 | 1000 to 5000 | 100 to 1000 | 100 to 1000 | – | – | CN(C)CCCNC(=O)c1ccc(-c2c(F)cnc3[nH]c4cnc(-c5cnn(C)c5)cc4c23)cc1 [Example 38] | < 100
< 100 | 1000 to 5000 | < 100 | 100 to 1000 | 1000 to 5000 | 100 to 1000 | 100 to 1000 | – | – | O=C(NCCN1CCOCC1)c1ccc(-c2c(F)cnc3[nH]c4cnc(-c5cccnc5)cc4c23)cc1 [Example 21, 4-[3-fluoro-6-(pyridin-3-yl)-9H-pyrrolo[2,3-b:5,4-c′]dipyridin-4-yl]-N-[2-(morpholin-4-yl)ethyl]benzamide] | 100 to 1000
< 100 | 1000 to 5000 | < 100 | 1000 to 5000 | 1000 to 5000 | 1000 to 5000 | 100 to 1000 | – | – | CN(C)CCNC(=O)c1cccc(-c2c(F)cnc3[nH]c4cnc(-c5cccnc5)cc4c23)c1 [Example 12, N-[2-(dimethylamino)ethyl]-3-[3-fluoro-6-(pyridin-3-yl)-9H-pyrrolo[2,3-b:5,4-c′]dipyridin-4-yl]benzamide] | 100 to 1000
< 100 | 1000 to 5000 | < 100 | 1000 to 5000 | 1000 to 5000 | 100 to 1000 | – | 1000 to 5000 | 100 to 1000 | CN1CCC(CNC(=O)c2ccc(-c3c(F)cnc4[nH]c5cnc(-c6cccnc6)cc5c34)cc2)CC1 [Example 25, 4-[3-fluoro-6-(pyridin-3-yl)-9H-pyrrolo[2,3-b:5,4-c′]dipyridin-4-yl]-N-[(1-methylpiperidin-4-yl)methyl]benzamide] | 100 to 1000
< 100 | < 100 | < 100 | 1000 to 5000 | 100 to 1000 | – | – | 1000 to 5000 | – | CC(C)(N)CNC(=O)c1ccc(-c2c(F)cnc3[nH]c4cnc(-c5cccnc5)cc4c23)cc1 [Example 26, N-(2-amino-2-methylpropyl)-4-[3-fluoro-6-(pyridin-3-yl)-9H-pyrrolo[2,3-b:5,4-c′]dipyridin-4-yl]benzamide] | –
< 100 | < 100 | < 100 | 100 to 1000 | 100 to 1000 | < 100 | – | 100 to 1000 | 100 to 1000 | CN(C)CCNC(=O)c1ccc(-c2ccnc3[nH]c4cnc(-c5cnn(C)c5)cc4c23)cc1 [Example 44] | < 100
< 100 | < 100 | < 100 | 1000 to 5000 | 100 to 1000 | – | – | 100 to 1000 | 100 to 1000 | CN(C)CCN(C)C(=O)c1ccc(-c2c(F)cnc3[nH]c4cnc(-c5cccnc5)cc4c23)cc1 [Example 23, N-[2-(dimethylamino)ethyl]-4-[3-fluoro-6-(pyridin-3-yl)-9H-pyrrolo[2,3-b:5,4-c′]dipyridin-4-yl]-N-methylbenzamide] | –
